{
  "source": "patent US20240226211A9",
  "about": "“SEAWEED EXTRACTS, ISOLATED COMPOUNDS, AND METHODS OF TREATMENT” (University of Florida Research Foundation, Incorporated, priority 2017, published 2024)",
  "key": {"[1]": {"test_system": "ARE-driven genes (GCLC, Gclm, TXNRD1, GSTA4, HMOX1)", "assay": "qPCR of ARE-driven genes in IMR-32 cells", "assay_type": "cell-based, human", "protocol": "(§1) The RNeasy Mini Kit (Qiagen) was used to collect total RNA from cells, while for mouse tissue, TRIzol reagent (Invitrogen) was used. In each case, total RNAs (2 μg) were reverse-transcribed into cDNAs, which were used as templates for TaqMan gene expression assay (Applied Biosystems) and detected using the 7300 Real-Time PCR System (Applied Biosystems). Each qPCR sample was tested in triplicate as a 25 μL total reaction volume (12.5 μL of Taqman 2× universal master mix, 1.25 μL of a 20× TaqMan gene expression assay probe, 1 μL of the above cDNA, and 10.25 μL of RNase-free sterile water). The qPCR method was designed as following: 50° C. for 2 min, 95° C. for 10 min, and 40 cycles of 95° C. for 15 s and 60° C. for 1 min. Endogenous controls used included GAPDH for IMR-32 cells and β-actin to normalize for RAW264.7 cells and mouse tissues."}, "[2]": {"test_system": "NQO1", "assay": "Immunoblot of NQO1 after NAC pre-treatment in IMR-32 cells", "assay_type": "cell-based, human", "conditions": "pre-treated with N-acetylcysteine", "protocol": "IMR-32 cells were seeded into 6-well plates (7×10^5 cells/well) and incubated at 37° C. for 24 h. The cells were then treated with a solvent control (DMSO, 1%, v/v), isolated compounds, or extracts. After 24 h, cells were lysed in 200 μL of PhosphoSafe buffer (Novagen). Protein concentrations were measured by using a BCA assay kit (Pierce). Equal amounts of total protein were separated using SDS-PAGE (NuPAGE® Novex® 4-12% Bis-Tris Mini gels, Invitrogen) and transferred onto a PVDF membrane. Membranes were blocked overnight with 5% BSA at 4° C. and incubated with indicated primary antibodies for 2 h at room temperature. After washing, the membranes were then incubated with the corresponding secondary antibodies (HRP-linked) for 1 h at room temperature and detected with Supersignal Femto Western Blotting kit (Pierce). For assays in the presence of N-acetylcysteine (NAC), the cells were pretreated with the antioxidant (NAC at 1 mM) for 2 h prior to treatment with the solvent control, isolated compounds, or extracts."}, "[3]": {"test_system": "Nrf2", "assay": "Nuclear translocation of NRF2 in IMR-32 cells", "assay_type": "cell-based, human"}, "[4]": {"test_system": "nitric oxide (NO) production in RAW264.7 cells", "assay": "NO assay in RAW264.7 cells", "assay_type": "cell-based, mouse", "conditions": "10 μM Compound 1, IFN-γ", "protocol": "RAW264.7 cells (2×10^4 cells/well), wild-type (8×10^3 cells/well), Nrf2−/−(7×10^3 cells/well), and Keap1−/−(5×10^3 cells/well) MEF were seeded into 96-well format. Cells were pretreated for 1 h with a solvent control (DMSO, 1%, v/v) or serial dilutions of isolated compounds or extracts before addition of LPS (1 μg/mL) or IFN-γ (10 ng/mL). […] In each case, 50 μL of the media was combined with 50 μL Griess Reagent (Promega). Absorbance was measured at 540 nm and compared with a calibration curve generated using the provided […] standard."}, "[5]": {"test_system": "ARE-driven and NFκB driven genes", "assay": "Gene transcription in wildtype zebrafish embryos", "assay_type": "in vivo"}, "[6]": {"test_system": "Hmox1", "assay": "Hmox1 transcript levels in mouse organs after oral gavage", "assay_type": "in vivo", "conditions": "mice, particularly digestive tract", "protocol": "as §1\nThe experiments were approved by the Institutional Animal Care & Use Committee at the University of Florida. Groups of 5-10 wild type male mice (C57BL/6J) were used for each treatment type. The mice were maintained under approved standard conditions. […] The tissues were harvested immediately, frozen on dry ice, and kept at −80° C. until analyzed.\nA low dose and a high dose of cymopol (1) or the NP extract were administered to 4-week-old male mice via oral gavage."}, "[7]": {"assay": "Toxicity observation in mice after oral gavage", "assay_type": "in vivo", "conditions": "oral gavage 3 consecutive days", "protocol": "The experiments were approved by the Institutional Animal Care & Use Committee at the University of Florida. Groups of 5-10 wild type male mice (C57BL/6J) were used for each treatment type. The mice were maintained under approved standard conditions. Cymopol (1) and the non-polar extract (NP extract) were dissolved in Chremophor EL (Sigma) containing 10% DMSO and administered via oral gavage for 3 consecutive days, with 24 h between each treatment. […] 12 h following the final treatment, the mice were euthanized in 100% CO2. The tissues were harvested immediately, frozen on dry ice, and kept at −80° C. until analyzed."}, "[8]": {"test_system": "large intestine transcriptome", "assay": "RNAseq of mouse large intestine", "assay_type": "in vivo"}, "[9]": {"test_system": "Staphylococcus aureus", "assay": "Preliminary antibacterial testing", "assay_type": "cell-based"}},
  "data": [
    {"smiles": "CC(C)=CCC/C(C)=C/Cc1cc(O)c(Br)cc1O", "note": "[Compound 1, (E)-2-bromo-5-(3,7-dimethylocta-2,6-dien-1-yl)benzene-1,4-diol]", "values": [
      {"measurement": "transcription of a series of ARE-driven genes", "setting": "[1]", "result": "induce the transcription of a series of ARE-driven genes"},
      {"measurement": "translation of NQO1 after NAC pre-treatment", "setting": "[2]", "result": "still able to induce the translation of NQO1"},
      {"measurement": "time after which increased nuclear NRF2 levels were seen", "setting": "[3]; IMR-32 cells", "result": 18, "unit": "h"},
      {"measurement": "nuclear translocation of NRF2", "setting": "[3]; IMR-32 cells, 0, 1, 6 or 18 hours", "result": "induced nuclear translocation of NRF2"},
      {"measurement": "reduction in levels of NO", "setting": "[4]", "result": "> 96", "unit": "%"},
      {"measurement": "ARE-driven gene transcription", "setting": "[5]", "result": "increase in ARE-driven gene transcription"},
      {"measurement": "select NFκB driven genes", "setting": "[5]", "result": "decrease in select NFκB driven genes"},
      {"measurement": "transcript levels of Hmox1 in various organs", "setting": "[6]", "result": "elevated transcript levels of Hmox1"},
      {"measurement": "apparent toxicity", "setting": "[7]", "result": "No apparent toxicity was observed"},
      {"measurement": "PI3K/Akt/mTOR pathway", "setting": "[8]; large intestine RNAseq, IPA", "result": "greatly affected"},
      {"measurement": "Wnt/β-catenin or Sonic Hedgehog signalling", "setting": "[8]; large intestine RNAseq, IPA", "result": "no notable difference"},
      {"measurement": "transcript levels of TNFα", "setting": "[8]; large intestine, low dose", "result": "down-regulated"},
      {"measurement": "antibacterial activity", "setting": "[9]", "result": "inhibited"}
    ]}
  ]
}
